Data as given in US20060276464A1, “Diarylsulfone sulfonamides and use thereof” (Wyeth, priority 2005, published 2006).
Read-outs that look alike come from different tables or passages of the source.

Target: T1, SFRP-1 (Homo sapiens, UniProt Q8N474)
T1 sequence (Q8N474 32-314): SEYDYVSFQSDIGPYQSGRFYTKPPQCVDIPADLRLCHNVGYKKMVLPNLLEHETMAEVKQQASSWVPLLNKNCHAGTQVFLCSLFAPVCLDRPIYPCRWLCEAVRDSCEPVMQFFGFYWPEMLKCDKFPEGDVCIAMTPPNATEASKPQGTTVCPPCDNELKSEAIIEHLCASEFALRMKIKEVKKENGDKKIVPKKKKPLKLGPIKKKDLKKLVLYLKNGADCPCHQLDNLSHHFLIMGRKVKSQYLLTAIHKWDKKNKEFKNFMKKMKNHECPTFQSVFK
Assay: Cell-based assay for in vitro measurement of SFRP-1/SARP2 antagonist activity (U2OS cells co-transfected with 16x TCF-tk-Luciferase reporter, Wnt and hSFRP-1);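 note: U2OS cells co-transfected with a TCF-tk luciferase reporter, a Wnt vector, hSFRP-1 or empty vector and CMV-βgal, luciferase luminescence read in cell lysates alongside βgal activity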
Details: for fold induction at 30 µM / fold induction at 15 µM / fold induction at 10 µM: U2OS; for fold induction at 10 µM: read-out: Fold Induction with SFRP-1, U2OS cells, single dose 10 μM, luciferase reporter, fold induction over SFRP-1 control

[1] = read-out: Fold Induction with SFRP-1, Conc 30 μM, with SFRP-1, fold induction over SFRP-1 control, single dose
[2] = read-out: Fold Induction without SFRP-1, Conc 30 μM, without SFRP-1, single dose
[3] = read-out: Fold Induction with SFRP-1, Conc 15 μM, with SFRP-1, fold induction over SFRP-1 control, single dose
[4] = read-out: Fold Induction without SFRP-1, Conc 15 μM, without SFRP-1, single dose
[5] = read-out: Fold Induction with SFRP-1, Conc 15 μM, single dose, luciferase reporter, fold induction over SFRP-1 control, cells with SFRP-1
[6] = read-out: Fold Induction without SFRP-1, Conc 15 μM, single dose, luciferase reporter, cells without SFRP-1 (specificity control)

Compound | fold induction at 15 µM [3] | fold induction at 15 µM [4] | also measured
COC(=O)CCNS(=O)(=O)c1cccc(S(=O)(=O)c2ccccc2)c1 [Example 182, methyl N-{[3-(phenylsulfonyl)phenyl]sulfonyl}-beta-alaninate] |  |  | fold induction at 30 µM [1]: 1; fold induction at 30 µM [2]: 1
Cc1ccc(S(=O)(=O)c2ccccc2)cc1S(=O)(=O)NCCCN1CCN(C)CC1 [Example 221, 2-methyl-N-[3-(4-methylpiperazin-1-yl)propyl]-5-(phenylsulfonyl)benzenesulfonamide] | 3 | 1.2 | 
O=C(NCCNS(=O)(=O)c1cc(S(=O)(=O)c2ccccc2)ccc1C(F)(F)F)c1ccc(Br)cc1 [Example 779, 4-Bromo-N-[2-({[5-(phenylsulfonyl)-2-(trifluoromethyl)phenyl]sulfonyl}amino)ethyl]benzamide] |  |  | fold induction at 10 µM: 1
Cc1ccc(S(=O)(=O)c2ccc(F)cc2)cc1S(=O)(=O)NC(C)C(O)c1ccccc1 (stereo not drawn) [Example 391, 5-[(4-fluorophenyl)sulfonyl]-N-[trans-2-hydroxy-1-methyl-2-phenylethyl]-2-methylbenzenesulfonamide] |  |  | Fold Induction with SFRP-1 (Conc 15 μM, with SFRP-1, fold induction over SFRP-1 control, single dose): 1.8 fold; Fold Induction without SFRP-1 (Conc 15 μM, without SFRP-1, single dose): 1.1 fold
Cc1ccc(S(=O)(=O)c2ccc(C)c(S(=O)(=O)NCCc3ccccc3)c2)cc1 [Example 116, 2-methyl-5-[(4-methylphenyl)sulfonyl]-N-(2-phenylethyl)benzenesulfonamide] |  |  | fold induction at 30 µM [1]: 0.9; fold induction at 30 µM [2]: 0.4
Cc1ccc(S(=O)(=O)c2ccc(F)cc2)cc1S(=O)(=O)NCCc1ccccc1 [Example 2, 5-[(4-fluorophenyl)sulfonyl]-2-methyl-N-(2-phenylethyl)benzenesulfonamide] |  |  | fold induction at 30 µM [1]: 0.9; fold induction at 30 µM [2]: 0.5
Cc1ccc(S(=O)(=O)c2ccc(C)c(S(=O)(=O)NCCc3ccccc3Cl)c2)cc1 [Example 117, N-[2-(2-chlorophenyl)ethyl]-2-methyl-5-[(4-methylphenyl)sulfonyl]benzenesulfonamide] |  |  | fold induction at 30 µM [1]: 1; fold induction at 30 µM [2]: 0.5
CCN(CC)CCNS(=O)(=O)c1cccc(S(=O)(=O)c2ccccc2)c1 [Example 193, N-[2-(diethylamino)ethyl]-3-(phenylsulfonyl)benzenesulfonamide] |  |  | fold induction at 30 µM [1]: 1.2; fold induction at 30 µM [2]: 1.3
Cc1cc(S(=O)(=O)c2ccccc2)cc(S(=O)(=O)NCCc2ccccn2)c1C [Example 349, 2,3-dimethyl-5-(phenylsulfonyl)-N-(2-pyridin-2-ylethyl)benzenesulfonamide] | 2 | 1.2 | 
Cc1ccc(S(=O)(=O)c2ccc(N[C@@H]3C[C@H]4CC[C@@H]3C4)cc2)cc1S(=O)(=O)NCCCn1ccnc1 [Example 369, 5-({4-[(1R,2R,4S)-bicyclo[2.2.1]hept-2-ylamino]phenyl}sulfonyl)-N-[3-(1H-imidazol-1-yl)propyl]-2-methylbenzenesulfonamide] | 1.9 | 0.7 | 
CC(C)c1ccc(S(=O)(=O)c2ccc(F)cc2)cc1S(=O)(=O)NC1CCCCC1 [Example 524, N-cyclohexyl-5-[(4-fluorophenyl)sulfonyl]-2-isopropylbenzenesulfonamide] |  |  | fold induction at 15 µM [5]: 1.4; fold induction at 15 µM [6]: 1
COc1ccc(C(=O)NCCNS(=O)(=O)c2cc(S(=O)(=O)c3ccccc3)ccc2C(F)(F)F)cc1 [Example 780, 4-Methoxy-N-[2-({[5-(phenylsulfonyl)-2-(trifluoromethyl)phenyl]sulfonyl}amino)ethyl]benzamide] |  |  | fold induction at 10 µM: 1.7
CCOc1ccc(CCNS(=O)(=O)c2cc(S(=O)(=O)c3ccccc3)ccc2C)cc1 [Example 51, N-[2-(4-ethoxyphenyl)ethyl]-2-methyl-5-(phenylsulfonyl)benzenesulfonamide] |  |  | fold induction at 30 µM [1]: 2.6; fold induction at 30 µM [2]: 0.9
CC(C)c1ccc(S(=O)(=O)c2ccc(F)cc2)cc1S(=O)(=O)NC1CCC1 [Example 522, N-cyclobutyl-5-[(4-fluorophenyl)sulfonyl]-2-isopropylbenzenesulfonamide] |  |  | fold induction at 15 µM [5]: 1.4; fold induction at 15 µM [6]: 0.9
CCc1ccc(S(=O)(=O)c2ccccc2)cc1S(=O)(=O)NCCc1cccc(F)c1 [Example 146, 2-ethyl-N-[2-(3-fluorophenyl)ethyl]-5-(phenylsulfonyl)benzenesulfonamide] | 2.1 | 1.3 | 
Cc1ccc(S(=O)(=O)c2ccc(F)cc2)cc1S(=O)(=O)NC1CCN(C(=O)OC(C)(C)C)CC1 [Example 789, tert-butyl 4-[({5-[(4-fluorophenyl)sulfonyl]-2-methylphenyl}sulfonyl)amino]piperidine-1-carboxylate] |  |  | fold induction at 10 µM: 1.5
Cc1cc(S(=O)(=O)c2ccccc2)cc(S(=O)(=O)NCCn2ccnc2)c1C [Example 347, N-[2-(1H-imidazol-1-yl)ethyl]-2,3-dimethyl-5-(phenylsulfonyl)benzenesulfonamide] | 2.9 | 1.1 | 
COc1cccc(CCNS(=O)(=O)c2cccc(S(=O)(=O)c3ccccc3)c2)c1 [Example 62, N-[2-(3-methoxyphenyl)ethyl]-3-(phenylsulfonyl)benzenesulfonamide] | 1.2 | 1.1 | 
Cc1ccc(S(=O)(=O)c2ccc(N=[N+]=[N-])cc2)cc1S(=O)(=O)NCCCn1ccnc1 [Example 293, 5-[(4-azidophenyl)sulfonyl]-N-[3-(1H-imidazol-1-yl)propyl]-2-methylbenzenesulfonamide] | 2.5 | 0.9 | 
CCc1ccc(S(=O)(=O)c2ccccc2)cc1S(=O)(=O)NCCc1ccccc1 [Example 141, 2-ethyl-N-(2-phenylethyl)-5-(phenylsulfonyl)benzenesulfonamide] | 3.3 | 1 | 
Cc1cc(C)c(S(=O)(=O)c2ccccc2)cc1S(=O)(=O)NC(C)C(O)c1ccccc1 (stereo not drawn) [Example 393, N-[(trans)-2-hydroxy-1-methyl-2-phenylethyl]-2,4-dimethyl-5-(phenylsulfonyl)benzenesulfonamide] |  |  | Fold Induction with SFRP-1 (Conc 7.5 μM, with SFRP-1, fold induction over SFRP-1 control, single dose): 1.2 fold; Fold Induction without SFRP-1 (Conc 7.5 μM, without SFRP-1, single dose): 1 fold
Cc1ccc(S(=O)(=O)c2ccc(NC3CCCCC3)cc2)cc1S(=O)(=O)NCCCn1ccnc1 [Example 352, 5-{[4-(cyclohexylamino)phenyl]sulfonyl}-N-[3-(1H-imidazol-1-yl)propyl]-2-methylbenzenesulfonamide] | 1.7 | 1 | 
Cc1ccc(S(=O)(=O)c2ccc(F)cc2)cc1S(=O)(=O)N(C(=O)C1CC1)C1CCN(C(=O)C2CC2)CC1 [Example 602, N-[1-(cyclopropylcarbonyl)piperidin-4-yl]-N-({5-[(4-fluorophenyl)sulfonyl]-2-methylphenyl}sulfonyl)cyclopropanecarboxamide] |  |  | fold induction at 15 µM [5]: 1.3; fold induction at 15 µM [6]: 1.1
Cc1ccc(S(=O)(=O)c2ccc(Cl)cc2)cc1S(=O)(=O)NCCc1ccccn1 [Example 291, 5-[(4-chlorophenyl)sulfonyl]-2-methyl-N-(2-pyridin-2-ylethyl)benzenesulfonamide] | 1.7 | 0.9 | 

Now from value to molecule, other results behind:

fold induction at 15 µM [3] | fold induction at 15 µM [4] | Compound | also measured
1.2 | 0.9 | Cc1ccc(S(=O)(=O)c2ccc(C(C)(O)c3ccccc3)cc2)cc1S(=O)(=O)NCCc1ccccn1 (stereo not drawn) [Example 407, 5-{[4-(1-hydroxy-1-phenylethyl)phenyl]sulfonyl}-2-methyl-N-(2-pyridin-2-ylethyl)benzenesulfonamide] | 
1.7 | 0.8 | Cc1ccc(S(=O)(=O)c2ccccc2C)cc1S(=O)(=O)NCCc1ccccn1 [Example 430, 2-methyl-5-[(2-methylphenyl)sulfonyl]-N-(2-pyridin-2-ylethyl)benzenesulfonamide] | 
2.7 | 1 | Cc1cc(C)c(S(=O)(=O)c2ccccc2)cc1S(=O)(=O)NCC1CCOCC1 [Example 385, 2,4-dimethyl-5-(phenylsulfonyl)-N-(tetrahydro-2H-pyran-4-ylmethyl)benzenesulfonamide] | 
1.8 | 1 | Cc1ccc(S(=O)(=O)c2ccccc2)cc1S(=O)(=O)NCC(O)c1ccccc1 (stereo not drawn) [Example 386, N-(2-hydroxy-2-phenylethyl)-2-methyl-5-(phenylsulfonyl)benzenesulfonamide] | 
2.9 | 0.9 | CC(C)c1ccc(S(=O)(=O)c2cc(F)cc(F)c2)cc1S(=O)(=O)NCCc1ccccn1 [Example 458, 5-[(3,5-difluorophenyl)sulfonyl]-2-isopropyl-N-(2-pyridin-2-ylethyl)benzenesulfonamide] | 
2.4 | 0.9 | Cc1ccc(S(=O)(=O)c2ccccc2)cc1S(=O)(=O)NCC1CCOCC1 [Example 382, 2-methyl-5-(phenylsulfonyl)-N-(tetrahydro-2H-pyran-4-ylmethyl)benzenesulfonamide] | 
